Among the test systems are DMS-114; M19-MEL; DLD-1; KM-20L2; XF498; SNB-78; HOP-18; LXFL 529; RXF 631.
Common to all, as to test: inhibition of tumour cell growth, NCI panel, 48 h

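Test compounds were applied to cells in 96-well plates for 48 hours at 5 doses. Abbreviation: GI50, concentration required for 50% inhibition of growth.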 The source made the active and inactive calls. No stated cut-off is given here; in the data, active = GI50 up to about 1.1 µM and inactive = higher.

This is an account of results in ChEMBL document CHEMBL1201862, “PubChem BioAssay data set” (2004).

`C#CN1C(=O)c2c(c(-c3ccccc3)c(-c3ccc(Oc4ccc(-c5c(-c6ccccc6)c6c(c(-c7ccccc7)c5-c5ccccc5)C(=O)N(C#C)C6=O)cc4)cc3)c(-c3ccccc3)c2-c2ccccc2)C1=O`: the GI50 in the experiment on DMS-114 was > 100 µM (inactive); in the experiment with M19-MEL, > 100 µM (inactive); in the experiment on DLD-1 it was > 100 µM (inactive); in the experiment with KM-20L2 it was > 100 µM (inactive); in the experiment on XF498, 23.2 µM (inactive).

In the case of `CC(=O)CNC(=O)OC(C)(C)C`, the GI50 with DMS-114, in the experiment on SNB-78, in the experiment on M19-MEL, in the experiment on DLD-1, in the experiment on KM-20L2 and in the experiment with XF498 was > 100 µM (inactive) each time.

As for `C1OC1CO[C@@H]1CO[C@H]2[C@@H]1OC[C@H]2OCC1CO1` (stereo not given in full), the GI50 in the experiment with DMS-114, with SNB-78, with HOP-18, in the experiment on M19-MEL, with DLD-1 and in the experiment on KM-20L2 was > 100 µM (inactive) in each case. Also, in the experiment with XF498, the GI50 was > 100 µM (inactive).

In the case of `O=C(COc1ccc2c(=O)cc(-c3ccc(Cl)cc3)oc2c1)N1CCN(c2ccccc2)CC1`, the GI50 with SNB-78 is 5.11 µM (inactive); in the experiment with M19-MEL, > 100 µM (inactive); in the experiment with DLD-1, > 100 µM (inactive); with KM-20L2 it was > 100 µM (inactive); in the experiment with LXFL 529, 11.9 µM (inactive); in the experiment with XF498, > 100 µM (inactive). Further, in the experiment with RXF 631, the GI50 was 6.58 µM (inactive).

On to `O=C(/C=C/c1cc(Cl)cc(Cl)c1O)c1cccc(O)c1`, for which the GI50 in the experiment on DMS-114 was 35.9 µM (inactive); in the experiment with SNB-78, 91.8 µM (inactive); in the experiment on HOP-18 it was 31 µM (inactive); in the experiment with M19-MEL, 26.5 µM (inactive); in the experiment with DLD-1, 38.8 µM (inactive); with KM-20L2 it was 48.3 µM (inactive). The GI50 in the experiment on LXFL 529 was 57.1 µM (inactive).

Turning to `O=C1N[C@@H](O)[C@@H]2ON=C(c3ccccc3)[C@H]12`, the GI50 with DMS-114, with HOP-18, with M19-MEL, in the experiment with DLD-1, with KM-20L2 and in the experiment on LXFL 529 was > 100 µM (inactive) each time. In addition, the GI50 in the experiment with XF498 and with RXF 631 was > 100 µM (inactive) throughout.

In the case of `COc1ccc(-c2nc3c(nc2-c2ccc(OC)cc2)C(N)=NS(=O)(=O)N3)cc1`, the GI50 in the experiment with DMS-114, in the experiment on M19-MEL, with DLD-1 and with RXF 631 was > 100 µM (inactive) throughout.

Consider `O=C(/C=C1/Nc2ccc([N+](=O)[O-])cc2NC1O)c1cccc([N+](=O)[O-])c1` (stereo not given), for which the GI50 is 32.1 µM (inactive) in the experiment on DMS-114; > 100 µM (inactive) with SNB-78; 58.3 µM (inactive) in the experiment on M19-MEL; 17.3 µM (inactive) in the experiment on DLD-1; 25.4 µM (inactive) in the experiment on KM-20L2; 19.9 µM (inactive) with LXFL 529. Also, the GI50 in the experiment with XF498 was > 100 µM (inactive).

On to `O=C(c1ccc(Cl)cc1)C1OC12C(=O)Nc1ccccc12` (stereo not given), for which the GI50 with DMS-114 is 12.4 µM (inactive); in the experiment on SNB-78, 16 µM (inactive); in the experiment on HOP-18, 13.9 µM (inactive); with M19-MEL, 10.4 µM (inactive); in the experiment on DLD-1 it was 2.42 µM (inactive); in the experiment with KM-20L2 it was 19.4 µM (inactive). Further, the GI50 with LXFL 529 is 3.08 µM (inactive); in the experiment on XF498 it was 12.5 µM (inactive); in the experiment with RXF 631, 17 µM (inactive).

For the molecule `CC1(C)CC(=O)C2=C(C1)S/C(=C1/SC3=C(S1)C(=O)CC(C)(C)C3)S2`, the GI50 in the experiment on DMS-114, in the experiment on SNB-78, with HOP-18, in the experiment on M19-MEL, in the experiment on DLD-1 and in the experiment on KM-20L2 was > 251 µM (inactive) each time. Also, the GI50 in the experiment on LXFL 529 and in the experiment on XF498 was > 251 µM (inactive) throughout.

`O=C(/C=C/c1ccc(OCCCCCCCCCCOc2ccc(/C=C/C(=O)c3ccc(Cl)cc3)cc2)cc1)c1ccc(Cl)cc1`: the GI50 with DMS-114, in the experiment on SNB-78, in the experiment on HOP-18, with DLD-1, in the experiment on KM-20L2 and in the experiment on RXF 631 was > 100 µM (inactive) throughout.

For `O=C1c2ccccc2C(=O)c2nc(-c3ccccc3)c(-c3ccccc3)nc21`, the GI50 is 1.21 µM (inactive) in the experiment on DMS-114; > 100 µM (inactive) in the experiment on SNB-78; 26.7 µM (inactive) in the experiment on HOP-18; 0.427 µM (active) in the experiment on M19-MEL; > 100 µM (inactive) with DLD-1; 50.5 µM (inactive) in the experiment on KM-20L2. For the same molecule, the GI50 in the experiment on LXFL 529 was > 100 µM (inactive); with XF498, 14.4 µM (inactive); with RXF 631 it was 33.4 µM (inactive).

Consider `c1ccc(SC23C4C5C6C4C2C6C53)nc1` (stereo not given), for which the GI50 is > 100 µM (inactive) in the experiment with DMS-114; > 100 µM (inactive) in the experiment on SNB-78; 4.86 µM (inactive) in the experiment with HOP-18; > 100 µM (inactive) in the experiment on M19-MEL; > 100 µM (inactive) in the experiment on DLD-1; > 100 µM (inactive) in the experiment with KM-20L2. Further, the GI50 with LXFL 529 and in the experiment with RXF 631 was > 100 µM (inactive) in each case.

Turning to `O=C(CC(=O)c1cccc2ccccc12)C(=O)NC1C2CC3CC(C2)CC1C3` (stereo not given), the GI50 in the experiment with DMS-114 is > 100 µM (inactive); with SNB-78 it was > 100 µM (inactive); with HOP-18, 60.1 µM (inactive); in the experiment on M19-MEL, > 100 µM (inactive); with DLD-1 it was > 100 µM (inactive); with KM-20L2, > 100 µM (inactive). For the same molecule, the GI50 in the experiment on LXFL 529, with XF498 and in the experiment with RXF 631 was > 100 µM (inactive) each time.

For the molecule `CN(C)C(=S)Nc1nnc(Nc2ccccc2)s1`, the GI50 in the experiment with SNB-78, in the experiment with HOP-18, with M19-MEL, in the experiment with DLD-1, in the experiment with KM-20L2 and in the experiment with LXFL 529 was > 100 µM (inactive) each time. Moreover, the GI50 in the experiment with RXF 631 was > 100 µM (inactive).

For the molecule `CCCCN(Cc1ccccc1)/C(=N/C#N)N(Cc1ccccc1)Cc1ccccc1`, the GI50 in the experiment with SNB-78 was 24.2 µM (inactive); in the experiment with M19-MEL, 24.4 µM (inactive); in the experiment with DLD-1 it was 24.9 µM (inactive); in the experiment on KM-20L2, 6.82 µM (inactive); in the experiment with LXFL 529, 7.94 µM (inactive).

As for `COC(=O)/C=C/c1cc(OC)c(OC)c(OC)c1`, the GI50 in the experiment on DMS-114 is > 100 µM (inactive); in the experiment on HOP-18 it was > 100 µM (inactive); with M19-MEL, 93.8 µM (inactive); with DLD-1 it was > 100 µM (inactive); with KM-20L2, > 100 µM (inactive); with LXFL 529 it was > 100 µM (inactive). Further, the GI50 was > 100 µM (inactive) in the experiment with XF498 and 82.4 µM (inactive) with RXF 631.

Turning to `Cc1ccc(C2(O)CC(c3ccc([N+](=O)[O-])o3)=NN2C(=O)COc2ccc(Cl)cc2)cc1` (stereo not given), the GI50 in the experiment with DMS-114 is 9.86 µM (inactive); in the experiment on SNB-78, 12.9 µM (inactive); with HOP-18, 20.9 µM (inactive); in the experiment with M19-MEL, 3.67 µM (inactive); with DLD-1 it was 3.23 µM (inactive); with KM-20L2, 7.18 µM (inactive). Moreover, the GI50 was 2.79 µM (inactive) in the experiment with LXFL 529 and 11.4 µM (inactive) with XF498.

`COc1ccc(/C(=N\NC(=N)N)C(c2ccc(OC)cc2)C2OC(=O)c3ccccc32)cc1` (stereo not given): the GI50 in the experiment on DMS-114, with SNB-78, with M19-MEL, with DLD-1, with KM-20L2 and with LXFL 529 was > 100 µM (inactive) each time. For the same molecule, the GI50 in the experiment with XF498 and with RXF 631 was > 100 µM (inactive) in each case.

As for `CC1(C)C(=O)N(c2ccccc2)C(=O)N1c1nc2ccccc2[nH]1`, the GI50 in the experiment on DMS-114 was 38.7 µM (inactive); with SNB-78, > 100 µM (inactive); in the experiment on HOP-18 it was > 100 µM (inactive); in the experiment with M19-MEL, > 100 µM (inactive); in the experiment with DLD-1 it was > 100 µM (inactive); in the experiment with KM-20L2 it was > 100 µM (inactive). The GI50 with LXFL 529 was 85.3 µM (inactive); in the experiment on XF498, 92.7 µM (inactive); in the experiment with RXF 631, > 100 µM (inactive).

Regarding `CCC/C(=N\NC(=S)N1CCN(c2ccccn2)CC1)c1ccccn1`, the GI50 in the experiment on DMS-114 was < 0.001 µM (active); with SNB-78, 0.583 µM (active); in the experiment on HOP-18 it was 0.00887 µM (active); in the experiment with M19-MEL, 0.0366 µM (active); in the experiment on DLD-1, < 0.001 µM (active); with KM-20L2, < 0.001 µM (active). The results for the GI50 in the experiment on LXFL 529, with XF498 and with RXF 631 were < 0.001 µM (active), < 0.001 µM (active) and 0.133 µM (active), respectively.

Regarding `C1=CC(N(c2ccccc2)C2C=CCCC2)CCC1` (stereo not given), the GI50 in the experiment on DMS-114 was 67.3 µM (inactive); with HOP-18, > 100 µM (inactive); in the experiment with M19-MEL, > 100 µM (inactive); in the experiment on DLD-1, > 100 µM (inactive); in the experiment with KM-20L2 it was 72.6 µM (inactive); in the experiment on LXFL 529, > 100 µM (inactive).

As to `Clc1cccc(-c2nnc(-c3nn(-c4ccccc4)c4nc5ccccc5nc34)o2)c1`, the GI50 in the experiment on DMS-114, in the experiment on SNB-78, in the experiment on HOP-18, in the experiment with M19-MEL, in the experiment on DLD-1 and in the experiment on KM-20L2 was > 100 µM (inactive) each time. In addition, the GI50 in the experiment on LXFL 529 was 78.9 µM (inactive); in the experiment with XF498, 43.8 µM (inactive).

Regarding `O=C1Nc2ccccc2C12CCNC2Cc1ccccc1` (stereo not given), the GI50 in the experiment on DMS-114 was > 100 µM (inactive); in the experiment on HOP-18, 78.3 µM (inactive); in the experiment on M19-MEL it was > 100 µM (inactive); in the experiment with DLD-1 it was > 100 µM (inactive); in the experiment with KM-20L2, > 100 µM (inactive); in the experiment with LXFL 529 it was > 100 µM (inactive). Moreover, in the experiment on XF498, the GI50 was > 100 µM (inactive).

For the molecule `COc1ccc(C2S/C(=C\c3ccc([N+](=O)[O-])cc3)C(=O)N2NC(=O)Cc2ccccc2)cc1` (stereo not given), the GI50 in the experiment with DMS-114 is 45.8 µM (inactive); in the experiment on HOP-18, > 100 µM (inactive); in the experiment with M19-MEL, > 100 µM (inactive); with DLD-1, > 100 µM (inactive); in the experiment on LXFL 529 it was > 100 µM (inactive).
